Values of other authors, collected in US6916809B2, “Heterocyclic acridone inhibitors of IMPDH enzyme” (Bristol-Myers Squibb Company, priority 2001, dated 2005).
Read-outs that look alike come from different tables or passages of the source.

Columns and labels:
[1] = test system: antigen-specific T lymphocyte responses; details: for approximate IC10: antigen-induced proliferation, Canelos et al. 2001; for synergistic effect with Rol on inhibition of antigen-induced proliferation: combined with Rol 10^-7 M; for % inhibition of proliferation: synergistic combination of rolipram and MPA
IMPDH types I and II = details: low and high concentrations
IL-2, IL-4, and IFN = details: Rol 10^-7 M, MPA 10^-8 M

## CCCC(=O)Nc1ncnc2c1ncn2[C@@H]1O[C@@H]2COP(=O)(O)O[C@H]2[C@H]1OC(=O)CCC [dibuteryl-cAMP]
[1]
  approximate IC10: ~2e-06 M

## C=CC[C@@H]1/C=C(\C)C[C@H](C)C[C@H](OC)[C@H]2O[C@@](O)(C(=O)C(=O)N3CCCC[C@H]3C(=O)O[C@H](/C(C)=C/[C@@H]3CC[C@@H](O)[C@H](OC)C3)[C@H](C)[C@@H](O)CC1=O)[C@H](C)C[C@@H]2OC [tacrolimus]
[1]
  synergistic effect with Rol on inhibition of antigen-induced proliferation: little or no synergistic effect

## COc1ccc(C2CNC(=O)C2)cc1OC1CCCC1 (stereo not shown) [Rol, 4-[3-(cyclopentyloxy)-4-methoxy-phenyl]-2-pyrrolidinone]
IMPDH types I and II
  gene expression for IMPDH types I and II: remained unaffected
[1]
  approximate IC10: ~10^−7 M
IL-2, IL-4, and IFN
  downregulation in the generation of proinflammatory cytokines: no significant downregulation

## COc1c(C)c2c(c(O)c1C/C=C(\C)CCC(=O)O)C(=O)OC2 [MPA, mycophenolic acid]
IMPDH types I and II
  gene expression for IMPDH types I and II: remained unaffected
[1]
  synergistic effect with Rol on inhibition of antigen-induced proliferation: marked synergistic effect
[1]; with deoxyguanosine (reversal), p<0.05
  % inhibition of proliferation: 35±12%
[1]; without deoxyguanosine
  % inhibition of proliferation: 81±16%
IL-2, IL-4, and IFN
  downregulation in the generation of proinflammatory cytokines: no significant downregulation
